Laboratory results taken from patent US20170157013A1, “Metal Amino Acid Complexes for Bacterial Aggregation” (Colgate-Palmolive Company, priority 2015, published 2017).

Columns and labels:
[1] = system: Streptococcus oralis; experiment: Quantitative bacterial aggregation by absorbance at 610 nm, S. oralis; format: cell-based; settings: for OD610: 0.9% NaCl; for change in OD (610 nm) over the course of the experiment / time by which significant drop in absorbance has occurred / time of peak of absorbance: S. oralis; for change in OD (610 nm) over the course of the experiment: about one hour
Procedure: To evaluate the aggregation quantitatively, Streptococcus oralis bacteria was suspended in sterile 0.9% NaCl medium in capped culture tubes. To each tube, a different test sample was added, and the absorbance of the medium at […] was monitored over a period of about one hour. Bacteria of this size will remain suspended in solution for several hours before settling out under gravity. This gives such a solution a uniform haziness or opacity that can be quantified by measuring the absorbance of the solution at 610 nm. The aggregation of bacteria results in clumps of bacterial matter, which initially raises absorbance, followed by a sharp drop in absorbance as the bacterial matter settles out, leaving an increasingly transparent solution. Therefore, a decrease in absorbance signals the formation of bacterial aggregates.

[2] = system: A. viscous bacteria; experiment: Quantitative bacterial aggregation by absorbance at 610 nm, A. viscous; format: cell-based; settings: for final test result, absorbance at 610 nm: A. viscous, end of experiment
[3] = system: oral bacteria in stimulated whole saliva; experiment: Aggregation of oral bacteria in stimulated whole saliva, culture dish wells; format: cell-based, human; settings: 15 minutes at room temperature
Procedure: Stimulated whole saliva from a human volunteer was harvested and mixed either with an untreated control (water), metal salt solutions (0.2% zinc oxide or 0.1% zinc oxide/0.05% zinc citrate mixture), amino acid solutions (0.3% arginine, 1% arginine, or 0.94% lysine), or metal-amino acid complex solutions (1.2% zinc-lysine complex, 1.33% zinc-arginine complex, or 1% copper-lysine complex) as described in the present disclosure. The solutions were incubated for 15 minutes at room temperature in culture dish wells, then photographs were taken.

[4] = Stability of ZLC in solution (low-pH preparation); format: physicochemical; settings: final reaction mixture, clear, slightly acidic pH (<pH 7)
Procedure: In an alternative method, lysine HCl (2 molar equivalents) is dissolved in deionized water with stirring at room temperature. Concentrated hydrochloric acid equal to approximately 0.5 molar equivalent is added to the reaction mixture. ZnO (1 molar equivalent) is then added to the reaction mixture, and the mixture is stirred until complete dissolution occurs, typically within a minutes to a few hours. The pH of the reaction is kept at 6 or below. The ZLC complex can be kept in solution in the final reaction mixture, which is clear, for more than 3 months at slightly acidic pH (i.e., <pH 7) without precipitation of ZnO. Alternatively, the reaction mixture can be spray dried to yield ZLC powder, or the reaction mixture can be adjusted to a near-neutral pH (e.g., 6.8), and the crystalline salt of ZLC can be isolated upon slow evaporation of the concentrated ZLC reaction mixture.

[5] = 1 minute, 1.5% arginine, 0.94% lysine, 0.35% ZnCl2, 1.2% Zn-Lys, 1.33% Zn-Arg
[6] = 9 minutes, 1.5% arginine, 0.94% lysine, 0.35% ZnCl2, 1.2% Zn-Lys, 1.33% Zn-Arg
[7] = 21 minutes, 1.5% arginine, 0.94% lysine, 0.35% ZnCl2, 1.2% Zn-Lys, 1.33% Zn-Arg
[8] = 28 minutes, 1.5% arginine, 0.94% lysine, 0.35% ZnCl2, 1.2% Zn-Lys, 1.33% Zn-Arg
[9] = 40 minutes, 1.5% arginine, 0.94% lysine, 0.35% ZnCl2, 1.2% Zn-Lys, 1.33% Zn-Arg
[10] = 55 minutes, 1.5% arginine, 0.94% lysine, 0.35% ZnCl2, 1.2% Zn-Lys, 1.33% Zn-Arg
[11] = 1.5% arginine, 0.94% lysine, 0.35% zinc chloride, 1.2% zinc-lysine complex, 1.33% zinc-arginine complex
[12] = 1 minute, 1.5% arginine, 0.94% lysine, 0.35% ZnCl2, 1.2% Zn-Lysine, 1.33% Zn-Arg
[13] = 14 minutes, 1.5% arginine, 0.94% lysine, 0.35% ZnCl2, 1.2% Zn-Lysine, 1.33% Zn-Arg
[14] = 27 minutes, 1.5% arginine, 0.94% lysine, 0.35% ZnCl2, 1.2% Zn-Lysine, 1.33% Zn-Arg
[15] = 46 minutes, 1.5% arginine, 0.94% lysine, 0.35% ZnCl2, 1.2% Zn-Lysine, 1.33% Zn-Arg
[16] = 66 minutes, 1.5% arginine, 0.94% lysine, 0.35% ZnCl2, 1.2% Zn-Lysine, 1.33% Zn-Arg
[17] = 1.2% zinc-lysine complex, 1.33% zinc-arginine complex
[18] = 0.2% zinc oxide, 0.1% zinc oxide/0.05% zinc citrate, 0.3% arginine, 0.94% lysine, 1.2% zinc-lysine, 1.33% zinc-arginine, 1% copper-lysine

Compound | OD610 [1, 5] | OD610 [1, 6] | OD610 [1, 7] | OD610 [1, 8] | OD610 [1, 9] | OD610 [1, 10] | change in OD (610 nm) over the course of the experiment [1, 11] | OD610 [2, 12] | OD610 [2, 13] | OD610 [2, 14] | OD610 [2, 15] | OD610 [2, 16] | observation of aggregate formation in saliva [3, 18] | also measured
[Cl-].[Cl-].[Zn+2] [ZnCl2, zinc chloride] | 0.572 | 0.584 | 0.615 | 0.680 | 0.652 | 0.397 | no appreciable change in OD (610 nm) or a rise in OD (610 nm) | 0.315 | 0.315 | 0.316 | 0.391 | 0.255 |  | 
zinc-arginine complex [Zn-Arg] | 0.563 | 0.568 | 0.575 | 0.620 | 0.616 | 0.361 | brief rise in absorbance which peaks at about 28 minutes, followed by a significant drop in absorbance | 0.436 | 0.474 | 0.623 | 0.369 | 0.025 | Large aggregates of material slowly formed and settled to the bottom of the dishes | time by which significant drop in absorbance has occurred [1, 17]: about 55 minutes; time of peak of absorbance [1, 17]: about 28 minutes; final test result, absorbance at 610 nm [2]: nearly zero absorbance
N=C(N)NCCC[C@H](N)C(=O)O [Arginine, arginine] | 0.492 | 0.473 | 0.455 | 0.449 | 0.441 | 0.428 | no appreciable change in OD (610 nm) or a rise in OD (610 nm) | 0.438 | 0.432 | 0.427 | 0.418 | 0.424 | no change was observed compared to the negative control | OD610 ([1]; 1 minute, 5% arginine): 0.496; OD610 ([1]; 9 minutes, 5% arginine): 0.468; OD610 ([1]; 21 minutes, 5% arginine): 0.450; OD610 ([1]; 28 minutes, 5% arginine): 0.446; OD610 ([1]; 40 minutes, 5% arginine): 0.440; OD610 ([1]; 55 minutes, 5% arginine): 0.435; change in OD (610 nm) over the course of the experiment ([1]; 5% arginine): no appreciable change in OD (610 nm) or a rise in OD (610 nm); observation of aggregate formation in saliva ([3]; 1% arginine): no change was observed compared to the negative control; OD610 ([2]; 1 minute, 5% arginine): 0.341; OD610 ([2]; 14 minutes, 5% arginine): 0.334; OD610 ([2]; 27 minutes, 5% arginine): 0.335; OD610 ([2]; 46 minutes, 5% arginine): 0.333; OD610 ([2]; 66 minutes, 5% arginine): 0.333
[O]=[Zn] [zinc oxide] |  |  |  |  |  |  |  |  |  |  |  |  | only undissolved and/or precipitated metal salt | 
Cl.Cl.NCCCCC(N)C(=O)[O-].NCCCCC(N)C(=O)[O-].O.O.[Zn+2] (centres unmarked) [ZLC, zinc-lysine-chloride complex] | 0.549 | 0.551 | 0.574 | 0.515 | 0.357 | 0.182 | peak of absorbance at about 21 minutes, followed by a significant drop | 0.454 | 0.554 | 0.175 | 0.032 | 0.014 | Large aggregates of material slowly formed and settled to the bottom of the dishes | time by which significant drop in absorbance has occurred [1, 17]: about 55 minutes; time of peak of absorbance [1, 17]: about 21 minutes; time kept in solution without precipitation of ZnO [4]: more than 3 months; final test result, absorbance at 610 nm [2]: nearly zero absorbance
copper-lysine complex |  |  |  |  |  |  |  |  |  |  |  |  | Large aggregates of material slowly formed and settled to the bottom of the dishes | 
NCCCC[C@H](N)C(=O)O [Lysine, lysine] | 0.537 | 0.547 | 0.552 | 0.553 | 0.555 | 0.555 | no appreciable change in OD (610 nm) or a rise in OD (610 nm) | 0.416 | 0.413 | 0.411 | 0.410 | 0.409 | no change was observed compared to the negative control | 
